# According to patent US11744839B2, “Method of increasing platelet counts of a subject” (KOREA BASIC SCIENCE INSTITUTE, priority 2021, dated 2023):
# Key:
# BLVRB [1] = biological target: T1, BLVRB (Homo sapiens, UniProt P30043); experiment: Isothermal titration calorimetry (ITC) of compound binding to BLVRB; conditions: for TΔS / ΔG / ΔH (enthalpy of the reaction) / N (stoichiometry) / contribution from entropy, of the total binding energy: 25 °C; for N (stoichiometry): single-site binding model; for Kd: read-out: KD (dissociation constant), 25 °C
# T1 sequence (P30043 1-206): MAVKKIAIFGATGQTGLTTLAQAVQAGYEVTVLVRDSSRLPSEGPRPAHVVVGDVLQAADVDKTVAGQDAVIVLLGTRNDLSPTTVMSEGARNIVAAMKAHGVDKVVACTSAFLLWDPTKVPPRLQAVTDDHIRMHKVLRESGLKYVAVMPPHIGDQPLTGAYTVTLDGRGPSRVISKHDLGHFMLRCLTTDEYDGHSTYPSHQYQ
# BLVRB [2] = biological target: T1, BLVRB; experiment: NMR titration (HSQC) experiments with 15N-labeled BLVRB; format: binding; conditions: half-holo BLVRB 0.3 mM, ratio up to 1:10
# Procedure: Ratio 1:0, 1:0.6, 1:1, 1:10 [Half-holo form of BLVRB (0.3 mM):phloxine B and erythrosin B].
# (§1) The inhibition mechanism of these two compounds was investigated in physiological environment by NMR.
# Protein-based NMR spectroscopy is one of the most well-suited methods to identify intermolecular interactions including small molecule and protein interactions. Further, protein-based NMR methods provide information on binding sites, which is of prime interest for optimizing small molecules. Therefore, HSQC experiments of ^15N-labeled BLVRB were performed by titrating increasing amounts of the subject compounds to monitor the chemical shift changes upon the binding of the compounds identified in the enzyme activity assay. In particular, Ser111 was previously identified as a key residue involved in the catalytic mechanism of BLVRB. […] Using the assignment, the chemical shift perturbations (CSPs) of BLVRB by each drug were extracted from the spectra and the binding site of each drug was identified based on the CSPs.
# Half-holo form of BLVRB (with NADP^+) was used for NMR experiments. All the subject compounds were dissolved in DMSO-d6. NMR titration and 1D experiments were operated at a ^1H frequency of 800 MHz using a Bruker Avance spectrometer. All experiments were performed at 298 K and 5 mm diameter NMR tubes with a sample volume 500 μL were used.
# BLVRB [3] = biological target: T1, BLVRB; experiment: Dynamic light scattering (DLS) of BLVRB with inhibitor; conditions: molar ratio 0, 1, 5, 10 compound/BLVRB
# Text: FIGS. 2A and 2B show DLS results of BLVRB depending on the concentration of phloxine B (FIG. 2A) and erythorosin B (FIG. 2B). Molar ratio of the sample is 0, 1, 5, 10 [erythrosin B or phloxine B/BLVRB]. The horizontal axis represents the diameter of each drug on a logarithmic scale. The vertical axis represents the relative intensity of the signal.
# as §1
# rats = conditions: chronic administration; cited from earlier work
SMILES,TΔS (BLVRB [1]),ΔG (BLVRB [1]),ΔH (enthalpy of the reaction) (BLVRB [1]),N (stoichiometry) (BLVRB [1]),Kd (BLVRB [1]),"contribution from entropy, of the total binding energy (BLVRB [1])",multimerization of BLVRB upon addition of compound (BLVRB [2]),size of BLVRB-inhibitor complex (BLVRB [3]),thyroid tumor promotion (rats)
O=C(O)c1cc(/N=N/c2ccc(S(=O)(=O)Nc3ccccn3)cc2)ccc1O [Compound of formula 1],-3.18 ± 0.29 kJ/mol,-36.3 ± 0.21 kJ/mol,-39.5 ± 0.21 kJ/mol,0.99,0.44 ± 0.04 µM,,,,
CC1(C)CCC(C)(C)c2cc(NC(=O)c3ccc(C(=O)O)cc3)ccc21 [Compound of formula 3],14.6 ± 0.418 kJ/mol,-33.4 ± 0.33 kJ/mol,-18.8 ± 0.25 kJ/mol,1.07,1.38 ± 0.18 µM,44%,,,
O=C(O)c1cccc(-c2noc(-c3ccccc3F)n2)c1 [Compound of formula 4],-7.66 ± 0.38 kJ/mol,-38.2 ± 0.29 kJ/mol,-45.86 ± 0.25 kJ/mol,1.02,0.2 ± 0.02 µM,,,,
Cc1nc(-c2ccc(OCC(C)C)c(C#N)c2)sc1C(=O)O [Compound of formula 5],8.95 ± 0.46 kJ/mol,-33.1 ± 0.33 kJ/mol,-24.1 ± 0.33 kJ/mol,1.01,1.63 ± 0.21 µM,,,,
Cc1c(Nc2ncccc2C(=O)O)cccc1C(F)(F)F [Compound of formula 7],1.72 ± 0.29 kJ/mol,-37.4 ± 0.25 kJ/mol,-35.7 ± 0.17 kJ/mol,0.99,0.27 ± 0.03 µM,,,,
"O=C([O-])c1c(Cl)c(Cl)c(Cl)c(Cl)c1-c1c2cc(Br)c(=O)c(Br)c-2oc2c(Br)c([O-])c(Br)cc12.[Na+].[Na+] [Phloxine B, reference compound]",17.2 ± 0.502 kJ/mol,-33.5 ± 0.418 kJ/mol,-16.2 ± 0.25 kJ/mol,0.99,1.36 ± 0.22 µM,,induce multimerization of BLVRB,increase in the size of the BLVRB-inhibitor complex,

# More lines, main results first:
TΔS (BLVRB [1]),ΔG (BLVRB [1]),ΔH (enthalpy of the reaction) (BLVRB [1]),N (stoichiometry) (BLVRB [1]),Kd (BLVRB [1]),"contribution from entropy, of the total binding energy (BLVRB [1])",SMILES,multimerization of BLVRB upon addition of compound (BLVRB [2]),size of BLVRB-inhibitor complex (BLVRB [3]),thyroid tumor promotion (rats)
2.3 ± 0.502 kJ/mol,-32.9 ± 0.29 kJ/mol,-30.6 ± 0.418 kJ/mol,1.00,1.71 ± 0.21 µM,,O=C(O)c1ccc(-n2nc(-c3ccccc3O)nc2-c2ccccc2O)cc1 [Compound of formula 6],,,
4.52 ± 0.711 kJ/mol,-32.8 ± 0.418 kJ/mol,-28.3 ± 0.544 kJ/mol,1.01,1.8 ± 0.31 µM,,O=C(O)c1cc2ccccc2c(Cc2c(O)c(C(=O)O)cc3ccccc23)c1O [Compound of formula 8],,,
12.2 ± 0.544 kJ/mol,-38.8 ± 0.46 kJ/mol,-26.7 ± 0.25 kJ/mol,1.04,0.16 ± 0.03 µM,31%,"O=C(O)c1ccccc1-c1c2cc(I)c(=O)c(I)c-2oc2c(I)c(O)c(I)cc12 [Erythrosin B, reference compound]",induce multimerization of BLVRB,increase in the size of the BLVRB-inhibitor complex,promote thyroid tumors in rats
